Measurements reported in ChEMBL document CHEMBL5154885, “Synthesis and biological evaluation of Haspin inhibitors: Kinase inhibitory potency and cellular activity” (Eur J Med Chem, 2022).

Experiments:
[1] = molecular target: T1, Serine/threonine-protein kinase haspin (Homo sapiens, UniProt Q8TF76)
T1 sequence (Q8TF76 whole entry): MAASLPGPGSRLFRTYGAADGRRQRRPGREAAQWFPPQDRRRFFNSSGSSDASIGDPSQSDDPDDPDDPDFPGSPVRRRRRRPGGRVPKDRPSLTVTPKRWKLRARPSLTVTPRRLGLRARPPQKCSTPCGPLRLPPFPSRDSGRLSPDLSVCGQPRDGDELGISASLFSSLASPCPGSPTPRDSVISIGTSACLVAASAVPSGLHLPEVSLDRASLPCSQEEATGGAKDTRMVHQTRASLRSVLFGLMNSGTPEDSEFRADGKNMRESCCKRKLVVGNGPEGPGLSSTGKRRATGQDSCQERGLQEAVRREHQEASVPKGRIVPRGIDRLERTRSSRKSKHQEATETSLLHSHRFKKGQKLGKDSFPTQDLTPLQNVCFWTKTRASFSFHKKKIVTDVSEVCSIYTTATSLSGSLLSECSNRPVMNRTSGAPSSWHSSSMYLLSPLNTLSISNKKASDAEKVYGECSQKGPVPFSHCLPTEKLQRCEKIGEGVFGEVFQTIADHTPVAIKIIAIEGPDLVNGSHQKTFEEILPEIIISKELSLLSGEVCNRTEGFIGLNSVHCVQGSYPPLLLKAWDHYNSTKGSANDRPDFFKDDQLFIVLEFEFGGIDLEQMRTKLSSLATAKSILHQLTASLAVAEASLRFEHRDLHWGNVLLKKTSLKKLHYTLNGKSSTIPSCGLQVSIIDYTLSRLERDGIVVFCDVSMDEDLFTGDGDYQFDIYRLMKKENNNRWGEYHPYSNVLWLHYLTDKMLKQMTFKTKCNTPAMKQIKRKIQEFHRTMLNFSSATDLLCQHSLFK

[2] = molecular target: Serine/threonine-protein kinase PLK1 (Homo sapiens, UniProt P53350); assay: Inhibition of human PLK1 in presence of ATP by kinomescan assay
Serine/threonine-protein kinase PLK1, sequence (P53350 whole entry): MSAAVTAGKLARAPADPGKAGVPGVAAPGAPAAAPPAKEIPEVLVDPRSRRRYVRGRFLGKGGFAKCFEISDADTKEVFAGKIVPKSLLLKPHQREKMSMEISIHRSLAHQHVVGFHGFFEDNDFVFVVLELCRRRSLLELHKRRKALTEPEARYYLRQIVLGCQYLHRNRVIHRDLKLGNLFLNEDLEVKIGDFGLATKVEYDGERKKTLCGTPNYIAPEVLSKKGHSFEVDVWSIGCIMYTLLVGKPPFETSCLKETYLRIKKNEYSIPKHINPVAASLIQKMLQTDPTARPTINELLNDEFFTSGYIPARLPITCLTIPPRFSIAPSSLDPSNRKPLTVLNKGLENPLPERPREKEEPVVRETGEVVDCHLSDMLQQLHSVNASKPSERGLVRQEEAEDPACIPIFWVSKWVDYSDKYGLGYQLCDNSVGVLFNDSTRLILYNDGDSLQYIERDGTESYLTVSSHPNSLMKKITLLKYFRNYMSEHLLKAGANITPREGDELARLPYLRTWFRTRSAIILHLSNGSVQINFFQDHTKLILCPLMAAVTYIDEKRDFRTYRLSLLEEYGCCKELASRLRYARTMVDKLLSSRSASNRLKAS

[3] = molecular target: Death-associated protein kinase 3 (Homo sapiens, UniProt O43293); assay: Inhibition of human DAPK3 in presence of ATP by kinomescan assay
Death-associated protein kinase 3, sequence (O43293 whole entry): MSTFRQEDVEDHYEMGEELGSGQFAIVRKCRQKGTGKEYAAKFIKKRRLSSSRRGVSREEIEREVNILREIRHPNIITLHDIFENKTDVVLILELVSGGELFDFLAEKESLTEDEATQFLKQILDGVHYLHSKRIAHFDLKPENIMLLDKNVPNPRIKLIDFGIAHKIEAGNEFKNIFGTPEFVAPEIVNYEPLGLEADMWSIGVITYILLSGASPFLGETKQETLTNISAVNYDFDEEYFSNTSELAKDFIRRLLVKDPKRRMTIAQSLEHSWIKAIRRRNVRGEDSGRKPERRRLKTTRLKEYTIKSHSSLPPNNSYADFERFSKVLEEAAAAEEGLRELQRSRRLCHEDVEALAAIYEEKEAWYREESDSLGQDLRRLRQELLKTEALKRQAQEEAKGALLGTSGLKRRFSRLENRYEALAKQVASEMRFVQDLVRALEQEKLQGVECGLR

[4] = Cytotoxicity against human TERT-RPE1 cells assessed as reduction in cell viability measured after 48 hrs by MTS assay; format: toxicity, cell-based
[5] = molecular target: Serine/threonine-protein kinase PLK2 (Homo sapiens, UniProt Q9NYY3); assay: Inhibition of human PLK2 in presence of ATP by kinomescan assay
Serine/threonine-protein kinase PLK2, sequence (Q9NYY3 whole entry): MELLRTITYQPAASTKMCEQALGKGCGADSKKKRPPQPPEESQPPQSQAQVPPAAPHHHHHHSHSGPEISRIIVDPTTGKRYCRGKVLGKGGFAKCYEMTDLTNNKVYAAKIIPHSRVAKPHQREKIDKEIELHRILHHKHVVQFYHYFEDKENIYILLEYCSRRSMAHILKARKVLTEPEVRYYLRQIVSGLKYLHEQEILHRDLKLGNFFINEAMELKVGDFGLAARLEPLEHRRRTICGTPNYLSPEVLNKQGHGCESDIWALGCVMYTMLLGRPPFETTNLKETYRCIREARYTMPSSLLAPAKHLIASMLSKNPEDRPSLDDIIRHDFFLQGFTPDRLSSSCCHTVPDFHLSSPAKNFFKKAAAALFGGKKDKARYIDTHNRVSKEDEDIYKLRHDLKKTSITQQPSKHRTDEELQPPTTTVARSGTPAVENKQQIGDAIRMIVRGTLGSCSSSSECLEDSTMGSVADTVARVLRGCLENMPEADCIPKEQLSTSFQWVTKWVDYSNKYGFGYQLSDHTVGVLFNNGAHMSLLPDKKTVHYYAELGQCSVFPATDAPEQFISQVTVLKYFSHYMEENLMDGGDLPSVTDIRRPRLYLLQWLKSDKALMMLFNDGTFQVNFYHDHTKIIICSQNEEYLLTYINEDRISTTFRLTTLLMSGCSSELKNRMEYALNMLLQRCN

[6] = molecular target: Serine/threonine-protein kinase PLK3 (Homo sapiens, UniProt Q9H4B4); assay: Inhibition of human recombinant PLK3 in presence of ATP by kinomescan assay
Serine/threonine-protein kinase PLK3, sequence (Q9H4B4 whole entry, the tested form may be a part): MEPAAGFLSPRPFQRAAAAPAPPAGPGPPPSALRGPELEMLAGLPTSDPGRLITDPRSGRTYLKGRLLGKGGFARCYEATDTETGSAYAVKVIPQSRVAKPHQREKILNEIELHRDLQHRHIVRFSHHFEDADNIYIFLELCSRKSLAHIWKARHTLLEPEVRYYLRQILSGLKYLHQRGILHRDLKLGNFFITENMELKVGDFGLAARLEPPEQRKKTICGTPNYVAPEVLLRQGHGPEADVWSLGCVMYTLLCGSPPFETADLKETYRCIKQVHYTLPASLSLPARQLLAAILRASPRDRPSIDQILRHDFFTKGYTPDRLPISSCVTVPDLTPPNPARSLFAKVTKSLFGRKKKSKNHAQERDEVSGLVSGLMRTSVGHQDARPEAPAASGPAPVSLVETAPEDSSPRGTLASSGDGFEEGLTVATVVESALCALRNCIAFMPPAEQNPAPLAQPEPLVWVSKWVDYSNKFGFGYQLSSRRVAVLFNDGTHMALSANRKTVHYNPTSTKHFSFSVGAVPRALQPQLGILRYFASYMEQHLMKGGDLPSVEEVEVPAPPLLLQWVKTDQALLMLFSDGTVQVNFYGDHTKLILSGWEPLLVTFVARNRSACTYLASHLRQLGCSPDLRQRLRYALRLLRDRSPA

[7] = molecular target: Dual specificity tyrosine-phosphorylation-regulated kinase 1A (Rattus norvegicus, UniProt Q63470); assay: Inhibition of recombinant rat DYRK1A (1 to 499 residues ) expressed in bacterial expression system using KKISGRLSPIMTEQ as substrate measured after 30 mins in presence of ATP by ADP-Glo assay
[8] = Inhibition of human recombinant CDK9 expressed in baculovirus insect Sf9 cells using YSPTSPSYSPTSPSYSPTSPSKKKK as substrate measured after 30 mins in presence of ATP by ADP-Glo assay
[9] = molecular target: Dual specificity protein kinase CLK1 (Mus musculus, UniProt P22518); assay: Inhibition of recombinant mouse CLK1 expressed in bacteria using GRSRSRSRSRSR as substrate in presence of ATP measured after 30 mins by ADP-Glo assay
Dual specificity protein kinase CLK1, sequence (P22518 whole entry): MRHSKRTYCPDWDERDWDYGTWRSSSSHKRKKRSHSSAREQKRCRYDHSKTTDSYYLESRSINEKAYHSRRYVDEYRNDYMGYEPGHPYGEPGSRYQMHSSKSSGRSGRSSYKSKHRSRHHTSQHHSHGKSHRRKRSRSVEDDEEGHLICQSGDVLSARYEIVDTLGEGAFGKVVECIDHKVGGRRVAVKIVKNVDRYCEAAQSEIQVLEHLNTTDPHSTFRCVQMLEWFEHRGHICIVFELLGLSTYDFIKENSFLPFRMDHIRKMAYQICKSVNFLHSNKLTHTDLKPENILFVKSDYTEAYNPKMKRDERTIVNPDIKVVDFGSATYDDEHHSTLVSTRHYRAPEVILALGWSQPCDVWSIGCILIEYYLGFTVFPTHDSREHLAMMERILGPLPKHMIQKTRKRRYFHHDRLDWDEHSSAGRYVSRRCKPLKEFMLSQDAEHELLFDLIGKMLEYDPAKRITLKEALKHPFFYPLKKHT

[10] = system: SH-SY5Y; assay: Cytotoxicity against human SH-SY5Y cells assessed as reduction in cell viability measured after 48 hrs by MTS assay
[11] = system: HCT-116; assay: Cytotoxicity against human HCT-116 cells assessed as reduction in cell viability measured after 48 hrs by MTS assay; conditions: HCT-116, 48 h
[12] = system: HBL-100; assay: Cytotoxicity against human HBL-100 cells assessed as reduction in cell viability measured after 48 hrs by MTS assay; conditions: HBL-100, 48 h
[13] = molecular target: Glycogen synthase kinase-3 beta (Homo sapiens, UniProt P49841); assay: Inhibition of human recombinant GSK3beta expressed in baculovirus in Sf9 insect cells using YRRAAVPPSPSLSRHSSPHQSpEDEEE as substrate measured after 30 mins by ADP-Glo kinase assay
Glycogen synthase kinase-3 beta, sequence (P49841 whole entry): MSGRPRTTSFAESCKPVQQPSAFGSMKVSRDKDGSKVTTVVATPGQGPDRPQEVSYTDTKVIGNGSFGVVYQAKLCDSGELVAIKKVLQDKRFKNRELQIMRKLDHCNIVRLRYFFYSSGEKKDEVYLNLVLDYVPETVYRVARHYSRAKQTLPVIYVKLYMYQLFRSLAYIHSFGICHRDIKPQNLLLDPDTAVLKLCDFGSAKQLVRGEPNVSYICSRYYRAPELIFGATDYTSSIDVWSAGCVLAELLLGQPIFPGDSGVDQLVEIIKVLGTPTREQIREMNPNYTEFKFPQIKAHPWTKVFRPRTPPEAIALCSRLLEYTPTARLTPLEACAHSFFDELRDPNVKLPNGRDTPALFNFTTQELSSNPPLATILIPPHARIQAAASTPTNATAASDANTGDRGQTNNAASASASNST

[14] = system: U2OS; assay: Cytotoxicity against human U2OS cells assessed as reduction in cell viability measured after 48 hrs by MTS assay
[15] = molecular target: Cyclin-dependent kinase 5/CDK5 activator 1 (Homo sapiens, UniProt Q00535); assay: Inhibition of human recombinant CDK5/p25 expressed in bacterial expression system using histone H1 as substrate in presence of ATP at measured after 30 mins by ADP-Glo assay
Cyclin-dependent kinase 5/CDK5 activator 1, sequence (Q00535 whole entry): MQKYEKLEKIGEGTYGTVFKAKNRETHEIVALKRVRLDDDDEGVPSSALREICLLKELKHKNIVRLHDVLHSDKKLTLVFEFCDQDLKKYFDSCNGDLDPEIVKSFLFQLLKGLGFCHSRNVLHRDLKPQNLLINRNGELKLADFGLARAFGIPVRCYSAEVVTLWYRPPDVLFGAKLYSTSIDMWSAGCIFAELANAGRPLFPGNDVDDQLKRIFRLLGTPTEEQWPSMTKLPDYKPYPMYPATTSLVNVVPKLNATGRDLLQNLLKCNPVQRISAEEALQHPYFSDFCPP
Cyclin-dependent kinase 5/CDK5 activator 1, sequence (Q15078 whole entry, further chain): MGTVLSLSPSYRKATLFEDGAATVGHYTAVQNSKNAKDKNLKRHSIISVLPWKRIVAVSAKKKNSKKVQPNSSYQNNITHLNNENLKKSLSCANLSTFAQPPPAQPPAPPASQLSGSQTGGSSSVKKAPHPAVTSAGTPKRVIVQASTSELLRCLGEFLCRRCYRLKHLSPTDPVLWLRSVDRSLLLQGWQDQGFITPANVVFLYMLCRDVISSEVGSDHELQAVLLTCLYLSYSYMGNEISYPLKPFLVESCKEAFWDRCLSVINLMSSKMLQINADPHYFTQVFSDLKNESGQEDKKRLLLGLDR

[16] = molecular target: T2, Tyrosine-protein kinase JAK3 (Homo sapiens, UniProt P52333); assay: Inhibition of human recombinant JAK3 expressed in baculovirus sf9 insect cells using GGEEEEYFELVKKKK as substrate measured after 30 mins in presence of ATP by ADP-Glo assay
T2 sequence (P52333 whole entry): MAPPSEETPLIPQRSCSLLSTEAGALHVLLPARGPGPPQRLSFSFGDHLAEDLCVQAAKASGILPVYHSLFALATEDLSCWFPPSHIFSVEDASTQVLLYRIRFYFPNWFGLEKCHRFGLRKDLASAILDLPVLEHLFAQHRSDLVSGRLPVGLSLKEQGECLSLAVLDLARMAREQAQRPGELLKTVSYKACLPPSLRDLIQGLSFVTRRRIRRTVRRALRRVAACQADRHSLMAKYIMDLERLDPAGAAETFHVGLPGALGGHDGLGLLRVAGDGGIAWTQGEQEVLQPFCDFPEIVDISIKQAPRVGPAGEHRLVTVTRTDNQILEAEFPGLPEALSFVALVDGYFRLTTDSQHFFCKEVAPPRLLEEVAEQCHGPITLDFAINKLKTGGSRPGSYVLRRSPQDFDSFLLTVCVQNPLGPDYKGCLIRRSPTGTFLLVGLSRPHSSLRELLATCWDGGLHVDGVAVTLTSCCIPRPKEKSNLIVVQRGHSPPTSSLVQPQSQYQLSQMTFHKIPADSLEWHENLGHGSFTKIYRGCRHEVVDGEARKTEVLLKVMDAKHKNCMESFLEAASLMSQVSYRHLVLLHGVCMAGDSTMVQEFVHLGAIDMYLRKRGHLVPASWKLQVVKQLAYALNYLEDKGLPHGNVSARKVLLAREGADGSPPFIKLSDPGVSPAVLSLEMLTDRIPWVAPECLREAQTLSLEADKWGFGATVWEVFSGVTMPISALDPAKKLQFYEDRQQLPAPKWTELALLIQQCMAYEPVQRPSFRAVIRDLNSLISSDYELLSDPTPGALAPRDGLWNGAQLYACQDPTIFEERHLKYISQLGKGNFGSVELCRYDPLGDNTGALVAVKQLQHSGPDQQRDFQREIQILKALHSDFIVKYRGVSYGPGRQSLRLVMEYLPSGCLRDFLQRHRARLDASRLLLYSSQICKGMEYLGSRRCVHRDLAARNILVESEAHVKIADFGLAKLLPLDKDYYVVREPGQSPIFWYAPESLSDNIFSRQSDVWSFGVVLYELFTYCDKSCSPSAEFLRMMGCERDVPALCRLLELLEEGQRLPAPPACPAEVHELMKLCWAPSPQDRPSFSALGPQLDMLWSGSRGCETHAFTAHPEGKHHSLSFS

[17] = molecular target: Serine/threonine-protein kinase pim-1 (Homo sapiens, UniProt P11309); assay: Inhibition of recombinant human PIM1 expressed in bacterial expression system using histone H1 as substrate measured after 30 mins in presence of ATP by ADP-Glo assay
[18] = molecular target: Casein kinase I isoform epsilon (Homo sapiens, UniProt P49674); assay: Inhibition of human recombinant CK1 epsilon expressed in baculovirus in sf9 insect cells using RRKHAAIGSpAYSITA as substrate in presence of ATP measured after 30 mins by ADP-Glo assay
[19] = molecular target: Tyrosine-protein kinase ABL1 (Homo sapiens, UniProt P00519); assay: Inhibition of human recombinant ABL1 expressed in baculovirus sf9 insect cells using EAIYAAPFAKKK as substrate measured after 30 mins in presence of ATP by ADP-Glo assay
Tyrosine-protein kinase ABL1, sequence (P00519 whole entry): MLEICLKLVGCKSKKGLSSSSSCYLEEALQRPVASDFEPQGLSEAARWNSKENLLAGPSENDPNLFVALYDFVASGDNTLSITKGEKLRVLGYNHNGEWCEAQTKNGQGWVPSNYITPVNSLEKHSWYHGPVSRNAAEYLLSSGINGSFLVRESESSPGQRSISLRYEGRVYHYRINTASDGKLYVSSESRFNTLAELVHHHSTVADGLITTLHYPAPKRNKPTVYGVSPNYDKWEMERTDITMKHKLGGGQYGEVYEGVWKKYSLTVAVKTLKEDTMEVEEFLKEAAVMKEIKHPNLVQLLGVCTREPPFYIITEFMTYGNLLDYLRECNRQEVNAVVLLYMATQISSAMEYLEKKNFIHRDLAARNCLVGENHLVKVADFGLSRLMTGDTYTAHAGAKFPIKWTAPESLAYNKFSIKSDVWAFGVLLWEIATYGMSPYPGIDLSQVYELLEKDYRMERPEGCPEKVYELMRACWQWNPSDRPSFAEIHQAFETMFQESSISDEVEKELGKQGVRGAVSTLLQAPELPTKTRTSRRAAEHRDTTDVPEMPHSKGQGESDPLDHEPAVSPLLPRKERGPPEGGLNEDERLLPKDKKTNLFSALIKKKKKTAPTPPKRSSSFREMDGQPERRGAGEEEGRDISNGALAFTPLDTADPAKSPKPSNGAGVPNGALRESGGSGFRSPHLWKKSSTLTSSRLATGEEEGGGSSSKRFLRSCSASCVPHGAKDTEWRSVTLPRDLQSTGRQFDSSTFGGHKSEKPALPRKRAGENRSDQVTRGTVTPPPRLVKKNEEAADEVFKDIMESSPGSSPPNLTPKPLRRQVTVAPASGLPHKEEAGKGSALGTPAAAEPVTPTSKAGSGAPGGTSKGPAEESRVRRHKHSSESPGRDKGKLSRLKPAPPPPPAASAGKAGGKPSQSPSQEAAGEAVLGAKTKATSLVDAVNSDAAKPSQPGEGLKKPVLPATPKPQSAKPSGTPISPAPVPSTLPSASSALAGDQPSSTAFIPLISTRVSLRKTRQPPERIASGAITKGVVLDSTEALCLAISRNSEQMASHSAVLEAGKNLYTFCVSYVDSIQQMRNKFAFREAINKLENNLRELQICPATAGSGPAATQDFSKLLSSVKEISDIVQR

Row | SMILES | IC50 [1] | IC50 [7] | IC50 [9] | further results
1 | COc1ncc2cc3cnccc3c([N+](=O)[O-])c2n1 |  |  |  | IC50 [2]: 294 nM; IC50 [3]: 578 nM; EC50 at 48 h [4]: 3200 nM; IC50 [5]: 125 nM; IC50 [6]: 117 nM
2 | Nc1ccc2cc3cnccc3c([N+](=O)[O-])c2n1 | 3 nM | 87 nM | 20 nM | EC50 [10]: 200 nM; EC50 at 48 h [4]: 400 nM; IC50 [8]: 24 nM; EC50 [11]: 200 nM; EC50 [12]: 800 nM; IC50 [13]: 418 nM; EC50 [14]: 300 nM
3 | CCCNc1ccc2ncc(-c3ccc4[nH]ncc4c3)n2n1 |  | 13 nM | 8 nM | IC50 [15]: 41 nM; IC50 [16]: 119 nM; IC50 [17]: 29 nM; IC50 [18]: 99 nM; IC50 [13]: 53 nM; IC50 [19]: 162 nM
4 | CSc1ncc2cc3cnccc3c([N+](=O)[O-])c2n1 | 119 nM |  |  | EC50 [10]: 1200 nM; EC50 at 48 h [4]: 800 nM; IC50 [8]: 407 nM; EC50 [11]: 1100 nM; EC50 [12]: 1300 nM
5 | CCSc1ncc2cc3cnccc3c([N+](=O)[O-])c2n1 | 91 nM | 515 nM | 148 nM | 
6 | CCCSc1ncc2cc3cnccc3c(N)c2n1 | 65 nM | 148 nM | 90 nM | 
7 | CCCSc1ncc2cc3cnccc3c([N+](=O)[O-])c2n1 | 169 nM |  |  | 
8 | CC(C)Sc1ncc2cc3cnccc3c([N+](=O)[O-])c2n1 | 114 nM |  |  | 
9 | CC(C)Sc1ncc2cc3cnccc3c(N)c2n1 | 56 nM | 594 nM | 72 nM | 

More lines, main results first:

Row | IC50 [1] | IC50 [7] | IC50 [9] | SMILES | further results
10 | 432 nM |  |  | CCCCCSc1ncc2cc3cnccc3c(N)c2n1 | 
11 | 159 nM |  |  | COc1ncc2cc3cnccc3c(N)c2n1 | 
12 | 12 nM | 47 nM | 37 nM | CSc1ncc2cc3cnccc3c(N)c2n1 | IC50 [8]: 189 nM
13 | 897 nM |  |  | CCOC(=O)CCSc1ncc2cc3cnccc3c([N+](=O)[O-])c2n1 | 
14 | 124 nM |  |  | CCSc1ncc2cc3cnccc3c(N)c2n1 | 
15 | 484 nM |  |  | CCC(C)Sc1ncc2cc3cnccc3c([N+](=O)[O-])c2n1 (centres undefined) | 
16 | 69 nM | 132 nM | 92 nM | CCCCSc1ncc2cc3cnccc3c(N)c2n1 | 
17 | 1040 nM |  |  | CCCCSc1ncc2cc3cnccc3c([N+](=O)[O-])c2n1 | 
18 | 202 nM |  |  | CCC(C)Sc1ncc2cc3cnccc3c(N)c2n1 (centres undefined) | 
